# Measurements from patent publication US7414036B2, “Compounds useful as A3 adenosine receptor agonists” (Muscagen Limited, priority 2002, dated 2008).
# “And” between values parts separate entries of the source, which are not always exact repeats. Equal values may be shown once.
# Legend:
# human A3 receptors = molecular target: T1, human A3 receptors (Homo sapiens, UniProt P0DMS8); assay: A3 receptor radioligand binding, displacement of [125I]-AB-MECA; conditions: for IC50: displacement of [125I]-AB-MECA (0.3 nM), human A3 receptors expressed in CHO cells, membranes, 60 min room temperature; for % Displacement of [125I]-AB-MECA: human A3 receptors in CHO cells
# T1 construct: expressed in transfected cells; host or cells: CHO cells (membrane preparations)
# T1 sequence (P0DMS8 1-318): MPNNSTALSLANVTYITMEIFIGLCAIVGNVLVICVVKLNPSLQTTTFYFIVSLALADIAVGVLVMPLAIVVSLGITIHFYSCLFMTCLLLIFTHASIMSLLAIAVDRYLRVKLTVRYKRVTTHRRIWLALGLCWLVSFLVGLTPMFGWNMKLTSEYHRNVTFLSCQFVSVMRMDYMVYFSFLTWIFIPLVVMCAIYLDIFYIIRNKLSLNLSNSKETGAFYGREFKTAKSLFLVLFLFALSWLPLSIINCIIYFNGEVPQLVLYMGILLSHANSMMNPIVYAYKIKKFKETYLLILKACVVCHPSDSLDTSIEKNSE
# [1] = pKa determination with co-solvent titrations; type: physicochemical; conditions: read-out: pKa (s)
# [2] = e.g. from about 70 mm Hg to about 90 mm Hg; cited from earlier work
# [3] = system: guinea-pig isolated left atria; assay: Myocardial contractile dysfunction (stunning) after simulated ischaemia of isolated atria
# Description: The following experiment was carried out to evaluate the efficacy of compound 6 in protecting against myocardial contractile dysfunction (stunning) after simulated ischaemia of isolated atria.
# Guinea-pig isolated left atria were set up in tissue baths containing Krebs-bicarbonate solution gassed with 5% CO2 in oxygen at 37° C. and electrically paced at 2 Hz with pulses of threshold voltage +50% and 5 ms pulse width. Developed tension was recorded. After equilibrium, they were exposed to 30 min of simulated ischaemia by gassing with 5% CO2 in nitrogen and removing the glucose substrate which was replaced with choline chloride (7 mM) to maintain isotonicity. Pacing was continued throughout. After 30 min, the tissues were reoxygenated and glucose was returned. […] This partial recovery was the index of myocardial stunning. […] This timing was to simulate administration at the time of reperfusion induced by thrombolyic therapy following myocardial infarction.
# [4] = empiric evidence; cited from earlier work
# A2 receptor = A2 receptor functional activity, relaxation of isolated trachea pre-contracted with carbachol; set-up: species or system guinea-pig; conditions: for IC25, relaxation at A2 receptors of guinea-pig trachea: concentration for 25% of the maximum response to NECA, trachea precontracted with carbachol (100 nM)
# A1 receptor = molecular target: T2, A1 receptor (Cavia porcellus, UniProt P47745); assay: A1 receptor functional activity, negative inotropic response of isolated paced left atria; set-up: species or system guinea-pig; conditions: for IC25, negative inotropic action at A1 receptors of guinea-pig atria: concentration for 25% of the maximum response to NECA, cumulative concentration-response curves
# T2 construct: from tissue; host or cells: guinea-pig isolated paced left atria
# T2 sequence (P47745 1-326): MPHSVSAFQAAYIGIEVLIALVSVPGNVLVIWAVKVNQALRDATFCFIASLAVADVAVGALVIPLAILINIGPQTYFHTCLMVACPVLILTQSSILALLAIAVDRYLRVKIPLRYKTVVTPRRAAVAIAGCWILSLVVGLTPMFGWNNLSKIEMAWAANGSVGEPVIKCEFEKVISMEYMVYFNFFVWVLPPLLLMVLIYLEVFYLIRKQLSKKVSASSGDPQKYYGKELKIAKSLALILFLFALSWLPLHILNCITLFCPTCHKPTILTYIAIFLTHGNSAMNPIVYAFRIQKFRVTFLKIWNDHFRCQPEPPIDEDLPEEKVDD
# [5] = Partition coefficient, propylene glycol dipelargonate (PGDP)/water model; type: physicochemical; conditions: 21.2 °C; for Log P(s): partition solvent propylene glycol dipelargonate (PGDP)/water, neutral species
# Source text: The partition measurements were based on a long chain ester (propylene glycol dipelargonate-PGDP)/water model.
compound,measurement,setting,value
"CNC(=O)[C@H]1O[C@@H](n2cnc3c(NCc4ccc5oc(N(C)C)nc5c4)ncnc32)C(O)C1O (stereo partly shown) [Compound 7, N^6-[(2-Dimethylamino-1,3-benzoxazol-5-yl)-methyl]-adenosine-5′-N-methyluronamide]",IC50,human A3 receptors,450 nM
same,melting point,,239 to 241 °C
same,pKa,[1],3.61
"CNC(=O)[C@H]1O[C@@H](n2cnc3c(NCc4ccccn4)ncnc32)C(O)C1O (stereo partly shown) [Compound 3, N^6-(2-picolyl)adenosine-5′-N-methyluronamide]",IC50,human A3 receptors,6 nM
same,melting point,,84 to 86 °C
CNC(=O)[C@H]1O[C@@H](n2cnc3c(NCc4cccc(I)c4)ncnc32)[C@H](O)[C@@H]1O [IB-MECA],Increase in basal or systemic blood pressure,[2],10-30%
same,"Maximum developed contractile tension (%), Post-ischaemic, Mean","[3]; IB-MECA 3 × 10^−7 M at reoxygenation, % of pre-ischaemic value, 6 experiments",66.5±6.5% and 66.5%
same,"Maximum developed contractile tension (%), Post-ischaemic","[3]; IB-MECA 3 × 10^−7 M at reoxygenation, % of pre-ischaemic value, single experiments",83.3% and 45.5% and 60% and 63% and 87.5%
"CNC(=O)[C@H]1O[C@@H](n2cnc3c(NCc4cc(I)c5oc(N(C)C)nc5c4)nc(C#Cc4ccccc4)nc32)[C@H](O)[C@@H]1O [Compound 8, N^6-[(2-dimethylamino-7-iodo-1,3-benzoxazol-5-yl)-methyl]-2-(2-phenyl-1-ethynyl)-adenosine-5′-N-methyluronamide]",IC50,human A3 receptors,21 to 80 nM
CC(C)NCC(O)COc1cccc2ccccc12 (stereo not shown) [propranolol],"Effective partition after allowing for protonation, log10 PGDP/H2O scale",[4],~0.8
"CNC(=O)[C@H]1O[C@@H](n2cnc3c(NCc4cc(C)ccn4)ncnc32)C(O)C1O (stereo partly shown) [Compound 1, N^6-(4-methyl-2-picolyl)-adenosine-5′-N-methyluronamide]",IC50,human A3 receptors,2.2 nM
"CNC(=O)[C@H]1O[C@@H](n2cnc3c(NCc4cccc(C(C)=O)n4)ncnc32)C(O)C1O (stereo partly shown) [Compound 4, N^6-(6-acetyl-2-picolyl)adenosine-5′-N-methyluronamide]",IC50,human A3 receptors,0.4 nM
same,melting point,,226 to 228 °C
"CCNC(=O)[C@H]1O[C@@H](n2cnc3c(N)ncnc32)[C@H](O)[C@@H]1O [NECA, N-ethylcarboxamidoadenosine, reference compound]","IC25, relaxation at A2 receptors of guinea-pig trachea",A2 receptor,940 nM
same,"IC25, negative inotropic action at A1 receptors of guinea-pig atria",A1 receptor,52 nM
"CNC(=O)[C@H]1O[C@@H](n2cnc3c(NCc4cc(I)ccn4)nc(C#Cc4ccccc4)nc32)[C@H](O)[C@@H]1O [Compound 5, N^6-(4-iodo-2-picolyl)-2-(2-phenyl-1-ethynyl)-adenosine-5′-N-methyluronamide]",IC50,human A3 receptors,31 to 45 nM
"CNC(=O)[C@H]1O[C@@H](n2cnc3c(NCc4cc(I)c5oc(N(C)C)nc5c4)ncnc32)C(O)C1O (stereo partly shown) [Compound 6, N^6-[(2-dimethylamino-7-iodo-1,3-benzoxazol-5-yl)-methyl]-adenosine-5′-N-methyluronamide]",Potency for binding to the human A3 receptor (in words),human A3 receptors,picomolar potency
same,% Displacement of [125I]-AB-MECA,human A3 receptors; Concentration (Log M) −7,94%
same,% Displacement of [125I]-AB-MECA,human A3 receptors; Concentration (Log M) −9,79%
same,% Displacement of [125I]-AB-MECA,human A3 receptors; Concentration (Log M) −10,73%
same,% Displacement of [125I]-AB-MECA,human A3 receptors; Concentration (Log M) −11,68%
same,% Displacement of [125I]-AB-MECA,human A3 receptors; Concentration (Log M) −12,47%
same,A3 binding potency compared with IB-MECA,human A3 receptors; comparison of IC50 values of Table 1,approximately two orders of magnitude more potent
same,IC50,human A3 receptors,0.0016 nM
same,pKa,[1],3.66 ± 0.03
same,"IC25, relaxation at A2 receptors of guinea-pig trachea",A2 receptor,9070 nM
same,Selectivity for A3 receptors (radioligand binding) against A2 receptors (tracheal relaxation),A2 receptor; ratio of tracheal functional value to A3 binding IC50,5.6×10^6
same,"IC25, negative inotropic action at A1 receptors of guinea-pig atria",A1 receptor,1000 nM
same,Selectivity for A3 receptors (radioligand binding) against A1 receptors (negative inotropy),A1 receptor; ratio of atrial functional value to A3 binding IC50,6.25×10^6
same,IC50,"A1 receptor; read-out: IC50, negative inotropic action at A1 receptors of guinea-pig atria",10000 nM
same,Log D,[5]; partition solvent PGDP/water,1.483
same,Log P(s),[5],1.484
same,Log P(s),[5]; listed as compound 10,1.48±0.03
same,"Maximum developed contractile tension (%), Post-ischaemic, Mean","[3]; Compound 6 5 × 10^−9 M at reoxygenation, % of pre-ischaemic value, n=3",84.0%
same,"Maximum developed contractile tension (%), Post-ischaemic, Mean","[3]; Compound 6 5 × 10^−9 M at reoxygenation, % of pre-ischaemic value, n=3, listed as compound 6",84.0±18.0%
same,"Maximum developed contractile tension, Post-ischaemic","[3]; Compound 6 5 × 10^−9 M introduced at reoxygenation after 30 min simulated ischaemia, single experiments",0.72 g and 0.42 g and 0.40 g
N^6-(4-iodo-2-picolyl)-adenosine-5′-N-methyluronamide [Compound 2],IC50,human A3 receptors,0.45 nM
